Test system: 817829-284-R-J1-PDC complex spheroid viability
Assay: Anticancer human tumor 817829-284-R-J1-PDC patient-derived colon adenocarcinoma cell line growth inhibition [POLQ]
Conditions: for IC50: curve of first compound; for viability, T/C: stronger effect = lower value
How it was run: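 Patient-derived tumour cells were co-cultured with HUVEC and mesenchymal stem cells as multicellular spheroids at 37 °C. They were treated with POLQ inhibitors (novobiocin, ART-558, RP6685) alone or combined with other agents. Top concentrations were at or near clinical Cmax (otherwise 10 microM; SN-38 at 1 microM), decreasing in half-log steps.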

[1] = second compound 0.0316 µM, first compound 0.0316 µM
[2] = second compound 0.0316 µM, first compound 0.1 µM
[3] = second compound 0.0316 µM, first compound 0.316 µM
[4] = second compound 0.0316 µM, first compound 1 µM
[5] = second compound 0.0316 µM, first compound 3.16 µM
[6] = second compound 0.0316 µM, first compound 10 µM
[7] = second compound 0.1 µM, first compound 0.0316 µM
[8] = second compound 0.1 µM, first compound 0.1 µM
[9] = second compound 0.1 µM, first compound 0.316 µM
[10] = second compound 0.1 µM, first compound 1 µM
[11] = second compound 0.1 µM, first compound 3.16 µM
[12] = second compound 0.1 µM, first compound 10 µM
[13] = second compound 0.316 µM, first compound 0.0316 µM
[14] = second compound 0.316 µM, first compound 0.1 µM
[15] = second compound 0.316 µM, first compound 0.316 µM
[16] = second compound 0.316 µM, first compound 1 µM
[17] = second compound 0.316 µM, first compound 3.16 µM
[18] = second compound 0.316 µM, first compound 10 µM
[19] = second compound 1 µM, first compound 0.0316 µM
[20] = second compound 1 µM, first compound 0.1 µM
[21] = second compound 1 µM, first compound 0.316 µM
[22] = second compound 1 µM, first compound 1 µM
[23] = second compound 1 µM, first compound 3.16 µM
[24] = second compound 1 µM, first compound 10 µM
[25] = second compound 3.16 µM, first compound 0.0316 µM
[26] = second compound 3.16 µM, first compound 0.1 µM
[27] = second compound 3.16 µM, first compound 0.316 µM
[28] = second compound 3.16 µM, first compound 1 µM
[29] = second compound 3.16 µM, first compound 3.16 µM
[30] = second compound 3.16 µM, first compound 10 µM
[31] = second compound 10 µM, first compound 0.0316 µM
[32] = second compound 10 µM, first compound 0.1 µM
[33] = second compound 10 µM, first compound 0.316 µM
[34] = second compound 10 µM, first compound 1 µM
[35] = second compound 10 µM, first compound 3.16 µM
[36] = second compound 10 µM, first compound 10 µM
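Further: spheroids exposed to compounds for 7 days.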
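Wherever viability, T/C is given: 100% = DMSO vehicle-treated spheroids.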

CCc1cc2c(N3CCc4c(cc(Cn5ccnc5)cc4-c4cn(C)nc4C(F)(F)F)C3=O)cc(C)nc2c(OC)n1 + COC1C(OC(N)=O)C(O)C(Oc2ccc3c(O)c(NC(=O)c4ccc(O)c(CC=C(C)C)c4)c(=O)oc3c2C)OC1(C)C
IC50 (second compound 0.0316 µM): 3.1 µM | IC50 (second compound 0.1 µM): 1.72 µM | IC50 (second compound 0.316 µM): 1.95 µM | IC50 (second compound 1 µM): 1.4 µM | IC50 (second compound 3.16 µM): 3.38 µM | IC50 (second compound 10 µM): 2.3 µM | viability, T/C [1]: 82.7% | viability, T/C [2]: 82.2% | viability, T/C [3]: 77.6% | viability, T/C [4]: 61.9% | viability, T/C [5]: 51.9% | viability, T/C [6]: 27.7% | viability, T/C [7]: 115% | viability, T/C [8]: 86.8% | viability, T/C [9]: 68.5% | viability, T/C [10]: 55.6% | viability, T/C [11]: 47.9% | viability, T/C [12]: 34.2% | viability, T/C [13]: 76.8% | viability, T/C [14]: 81.9% | viability, T/C [15]: 68.4% | viability, T/C [16]: 61.7% | viability, T/C [17]: 41.7% | viability, T/C [18]: 35.8% | viability, T/C [19]: 95.6% | viability, T/C [20]: 86.8% | viability, T/C [21]: 78% | viability, T/C [22]: 52% | viability, T/C [23]: 41.9% | viability, T/C [24]: 34.7% | viability, T/C [25]: 87.5% | viability, T/C [26]: 74.2% | viability, T/C [27]: 75.3% | viability, T/C [28]: 58.1% | viability, T/C [29]: 58.3% | viability, T/C [30]: 31.4% | viability, T/C [31]: 81.2% | viability, T/C [32]: 85.3% | viability, T/C [33]: 82.6% | viability, T/C [34]: 65.6% | viability, T/C [35]: 44.5% | viability, T/C [36]: 31.7%

CCc1cc2c(N3CCc4c(cc(Cn5ccnc5)cc4-c4cn(C)nc4C(F)(F)F)C3=O)ccnc2c(OC)n1 + COC1C(OC(N)=O)C(O)C(Oc2ccc3c(O)c(NC(=O)c4ccc(O)c(CC=C(C)C)c4)c(=O)oc3c2C)OC1(C)C
IC50 (second compound 0.0316 µM): 2.92 µM | IC50 (second compound 0.1 µM): 3.3 µM | IC50 (second compound 0.316 µM): 5.17 µM | IC50 (second compound 1 µM): 1.58 µM | IC50 (second compound 3.16 µM): 6.94 µM | IC50 (second compound 10 µM): 4.32 µM | viability, T/C [1]: 79% | viability, T/C [2]: 80.2% | viability, T/C [3]: 84.7% | viability, T/C [4]: 70% | viability, T/C [5]: 49% | viability, T/C [6]: 32.2% | viability, T/C [7]: 90.3% | viability, T/C [8]: 94% | viability, T/C [9]: 83.2% | viability, T/C [10]: 70.3% | viability, T/C [11]: 51.6% | viability, T/C [12]: 29.7% | viability, T/C [13]: 82.8% | viability, T/C [14]: 98.2% | viability, T/C [15]: 77.7% | viability, T/C [16]: 97.5% | viability, T/C [17]: 57.8% | viability, T/C [18]: 39.5% | viability, T/C [19]: 95.7% | viability, T/C [20]: 73% | viability, T/C [21]: 97.3% | viability, T/C [22]: 53.3% | viability, T/C [23]: 54.9% | viability, T/C [24]: 35.2% | viability, T/C [25]: 72.8% | viability, T/C [26]: 83.7% | viability, T/C [27]: 89.4% | viability, T/C [28]: 68.3% | viability, T/C [29]: 63.7% | viability, T/C [30]: 44.2% | viability, T/C [31]: 104% | viability, T/C [32]: 82.2% | viability, T/C [33]: 75.2% | viability, T/C [34]: 75.2% | viability, T/C [35]: 57% | viability, T/C [36]: 35.2%

COc1cc2cc(C(=O)CCC(=O)O)sc2cc1OC + COC1C(OC(N)=O)C(O)C(Oc2ccc3c(O)c(NC(=O)c4ccc(O)c(CC=C(C)C)c4)c(=O)oc3c2C)OC1(C)C
IC50 (second compound 0.0316 µM): > 10 µM | IC50 (second compound 0.1 µM): > 10 µM | IC50 (second compound 0.316 µM): > 10 µM | IC50 (second compound 1 µM): > 10 µM | IC50 (second compound 3.16 µM): > 10 µM | IC50 (second compound 10 µM): > 10 µM | viability, T/C [1]: 81.3% | viability, T/C [2]: 96.4% | viability, T/C [3]: 83.3% | viability, T/C [4]: 85.8% | viability, T/C [5]: 94.6% | viability, T/C [6]: 85.6% | viability, T/C [7]: 97.8% | viability, T/C [8]: 104% | viability, T/C [9]: 89.7% | viability, T/C [10]: 98.2% | viability, T/C [11]: 49.2% | viability, T/C [12]: 102% | viability, T/C [13]: 75.7% | viability, T/C [14]: 94.6% | viability, T/C [15]: 88.9% | viability, T/C [16]: 94.6% | viability, T/C [17]: 112% | viability, T/C [18]: 66.7% | viability, T/C [19]: 88.2% | viability, T/C [20]: 109% | viability, T/C [21]: 71.1% | viability, T/C [22]: 105% | viability, T/C [23]: 83.9% | viability, T/C [24]: 86.1% | viability, T/C [25]: 85.5% | viability, T/C [26]: 108% | viability, T/C [27]: 98.7% | viability, T/C [28]: 99.5% | viability, T/C [29]: 110% | viability, T/C [30]: 61.3% | viability, T/C [31]: 106% | viability, T/C [32]: 71.2% | viability, T/C [33]: 90.9% | viability, T/C [34]: 80.8% | viability, T/C [35]: 117% | viability, T/C [36]: 74.1%

O=C(Nc1ccc(O)c(NS(=O)(=O)c2ccc(F)cc2)c1)c1ccc(-c2ccccc2)cc1 + COC1C(OC(N)=O)C(O)C(Oc2ccc3c(O)c(NC(=O)c4ccc(O)c(CC=C(C)C)c4)c(=O)oc3c2C)OC1(C)C
IC50 (second compound 0.0316 µM): 7.82 µM | IC50 (second compound 0.1 µM): 7.15 µM | IC50 (second compound 0.316 µM): 5.73 µM | IC50 (second compound 1 µM): 6.35 µM | IC50 (second compound 3.16 µM): 6.53 µM | IC50 (second compound 10 µM): 7.4 µM | viability, T/C [1]: 114% | viability, T/C [2]: 68.6% | viability, T/C [3]: 95.2% | viability, T/C [4]: 72.2% | viability, T/C [5]: 72.9% | viability, T/C [6]: 38.4% | viability, T/C [7]: 74.9% | viability, T/C [8]: 108% | viability, T/C [9]: 79.2% | viability, T/C [10]: 101% | viability, T/C [11]: 84% | viability, T/C [12]: 36% | viability, T/C [13]: 91.5% | viability, T/C [14]: 106% | viability, T/C [15]: 90.4% | viability, T/C [16]: 87.7% | viability, T/C [17]: 68.9% | viability, T/C [18]: 32.4% | viability, T/C [19]: 100% | viability, T/C [20]: 84.8% | viability, T/C [21]: 107% | viability, T/C [22]: 84.7% | viability, T/C [23]: 66.6% | viability, T/C [24]: 39.6% | viability, T/C [25]: 91.9% | viability, T/C [26]: 100% | viability, T/C [27]: 103% | viability, T/C [28]: 103% | viability, T/C [29]: 68.5% | viability, T/C [30]: 39.1% | viability, T/C [31]: 82.8% | viability, T/C [32]: 109% | viability, T/C [33]: 99.6% | viability, T/C [34]: 109% | viability, T/C [35]: 66.7% | viability, T/C [36]: 44.1%
